From patent publication US20110105397A1, “METHOD FOR TREATING HEART FAILURE WITH STRESSCOPIN-LIKE PEPTIDES” (priority 2009, published 2011)

Tests used:
h-CRHR1 = target: T1, h-CRHR1 (Homo sapiens, UniProt P34998); conditions: h-CRHR1 transfected HEK-293 cells, approximated values from concentration response curves (Hsu et al., 2001); cited from earlier work
T1 sequence (P34998 24-415): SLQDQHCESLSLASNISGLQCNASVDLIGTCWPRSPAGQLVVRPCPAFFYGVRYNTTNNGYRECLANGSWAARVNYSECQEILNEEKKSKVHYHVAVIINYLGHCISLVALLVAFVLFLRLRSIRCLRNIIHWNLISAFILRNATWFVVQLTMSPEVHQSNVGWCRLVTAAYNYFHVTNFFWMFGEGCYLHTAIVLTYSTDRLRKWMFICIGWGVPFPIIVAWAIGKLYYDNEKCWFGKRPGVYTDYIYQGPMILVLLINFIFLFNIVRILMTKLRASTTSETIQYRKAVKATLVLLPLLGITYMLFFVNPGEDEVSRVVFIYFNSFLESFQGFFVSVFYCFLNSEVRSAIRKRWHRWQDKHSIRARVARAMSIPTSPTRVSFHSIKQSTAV

[1] = test system: subjects with heart failure; assay: Human hemodynamics (impedance cardiography), subjects with stable heart failure, 7.5-hour ascending dose IV infusion; type: in vivo; conditions: for Heart Rate CFB / Heart Rate Percent CFB: placebo-subtracted; for Cardiac Index CFB / Cardiac Index Percent CFB / Cardiac Output CFB / Cardiac Output Percent CFB / Diastolic Blood Pressure CFB / Diastolic Blood Pressure Percent CFB / Stroke Volume CFB / Stroke Volume Percent CFB / Systolic Blood Pressure CFB / Systolic Blood Pressure Percent CFB: post hoc analysis
Description: Efficacy was based on the pharmacodynamic evaluation of hemodynamics, which was monitored using the noninvasive technique of impedance cardiography. Heart rate values were collected by impedance cardiography measurements. It was noted that the heart rate of subjects receiving placebo were elevated on the day of their infusions, at baseline before the infusion, and for the first 3 to 4 hours after the infusions were started (FIG. 17). Based on this observation, it appeared that there was a potential effect of period on the observed heart rate.
A post hoc graphical analysis of the hemodynamic data was done to adjust for the elevated baseline values seen just before onset of the infusion, to obtain the best estimate of each hemodynamic parameter, and to correct for the effect of period. A post hoc graphic presentation was prepared from the complete (high frequency) dataset. This dataset contains the raw data that were further processed by the vendor (ie, CardioDynamics) and reported only at specific time points.
In this post hoc analysis an extended baseline was used for each value that included all values recorded before initiation of the infusion. Then an average value for each parameter was obtained from the last 30 minutes of each 2.5 hour infusion and was used as the effect in that period of the infused dose. Each value was modified for the effect of period of infusion by subtracting the mean change from baseline seen in placebo subjects dosed in that same period (placebo subtraction). The dose effect was estimated by averaging the values from all subjects who received the same dose after the placebo subtraction.
As may have occurred in healthy subjects, subjects with stable heart failure may have experienced anxiety before the start of the infusion that contributed to this increase in baseline heart rate values.

H-HPGSRIVLSLDVPIGLLQILLEQARARAAREQATTNARILARV-NH2 [SEQ ID NO: 117, HPGSRIVLSLDVPIGLLQILLEQARARAAREQATTNARILARV-NH2, reference compound]
Published pA50 (h-CRHR1): >7^3

H-TKFTLSLDVPTNIMNLLFNIAKAKNLRAQAAANAHLMAQI-NH2 [SEQ ID NO: 1, TKFTLSLDVPTNIMNLLFNIAKAKNLRAQAAANAHLMAQI-NH2]
increase in heart rate ([1]; highest dose of 54 ng/kg/min): ~10 bpm
Heart Rate CFB ([1]; infusion rate 0.3 ng/kg/min): 1.5 bpm
Heart Rate Percent CFB ([1]; infusion rate 0.3 ng/kg/min): 3.0%
Cardiac Index CFB ([1]; infusion rate 0.3 ng/kg/min): 0.3 L/min/m^2
Cardiac Index Percent CFB ([1]; infusion rate 0.3 ng/kg/min): 13.9%
Cardiac Output CFB ([1]; infusion rate 0.3 ng/kg/min): 0.7 L/min
Cardiac Output Percent CFB ([1]; infusion rate 0.3 ng/kg/min): 14.2%
Diastolic Blood Pressure CFB ([1]; infusion rate 0.3 ng/kg/min): −8.6 mm Hg
Diastolic Blood Pressure Percent CFB ([1]; infusion rate 0.3 ng/kg/min): −12.6%
Stroke Volume CFB ([1]; infusion rate 0.3 ng/kg/min): 7.6 mL
Stroke Volume Percent CFB ([1]; infusion rate 0.3 ng/kg/min): 9.5%
Systolic Blood Pressure CFB ([1]; infusion rate 0.3 ng/kg/min): −18.2 mm Hg
Systolic Blood Pressure Percent CFB ([1]; infusion rate 0.3 ng/kg/min): −15.8%
Heart Rate CFB ([1]; infusion rate 1 ng/kg/min): −0.4 bpm
Heart Rate Percent CFB ([1]; infusion rate 1 ng/kg/min): 0.2%
Cardiac Index CFB ([1]; infusion rate 1 ng/kg/min): 0.2 L/min/m^2
Cardiac Index Percent CFB ([1]; infusion rate 1 ng/kg/min): 10.1%
Cardiac Output CFB ([1]; infusion rate 1 ng/kg/min): 0.5 L/min
Cardiac Output Percent CFB ([1]; infusion rate 1 ng/kg/min): 10.2%
Diastolic Blood Pressure CFB ([1]; infusion rate 1 ng/kg/min): −6.1 mm Hg
Diastolic Blood Pressure Percent CFB ([1]; infusion rate 1 ng/kg/min): −9.1%
Stroke Volume CFB ([1]; infusion rate 1 ng/kg/min): 6.6 mL
Stroke Volume Percent CFB ([1]; infusion rate 1 ng/kg/min): 9.1%
Systolic Blood Pressure CFB ([1]; infusion rate 1 ng/kg/min): −4.9 mm Hg
Systolic Blood Pressure Percent CFB ([1]; infusion rate 1 ng/kg/min): −4.7%
Heart Rate CFB ([1]; infusion rate 3 ng/kg/min): −1.3 bpm
Heart Rate Percent CFB ([1]; infusion rate 3 ng/kg/min): −0.9%
Cardiac Index CFB ([1]; infusion rate 3 ng/kg/min): 0.1 L/min/m^2
Cardiac Index Percent CFB ([1]; infusion rate 3 ng/kg/min): 6.9%
Cardiac Output CFB ([1]; infusion rate 3 ng/kg/min): 0.3 L/min
Cardiac Output Percent CFB ([1]; infusion rate 3 ng/kg/min): 7.0%
Diastolic Blood Pressure CFB ([1]; infusion rate 3 ng/kg/min): −8.6 mm Hg
Diastolic Blood Pressure Percent CFB ([1]; infusion rate 3 ng/kg/min): −13.0%
Stroke Volume CFB ([1]; infusion rate 3 ng/kg/min): 4.8 mL
Stroke Volume Percent CFB ([1]; infusion rate 3 ng/kg/min): 7.3%
Systolic Blood Pressure CFB ([1]; infusion rate 3 ng/kg/min): −9.5 mm Hg
Systolic Blood Pressure Percent CFB ([1]; infusion rate 3 ng/kg/min): −9.2%
Heart Rate CFB ([1]; infusion rate 9 ng/kg/min): 0.2 bpm
Heart Rate Percent CFB ([1]; infusion rate 9 ng/kg/min): 1.5%
Cardiac Index CFB ([1]; infusion rate 9 ng/kg/min): 0.2 L/min/m^2
Cardiac Index Percent CFB ([1]; infusion rate 9 ng/kg/min): 9.1%
Cardiac Output CFB ([1]; infusion rate 9 ng/kg/min): 0.5 L/min
Cardiac Output Percent CFB ([1]; infusion rate 9 ng/kg/min): 9.2%
Diastolic Blood Pressure CFB ([1]; infusion rate 9 ng/kg/min): −8.6 mm Hg
Diastolic Blood Pressure Percent CFB ([1]; infusion rate 9 ng/kg/min): −11.9%
Stroke Volume CFB ([1]; infusion rate 9 ng/kg/min): 5.9 mL
Stroke Volume Percent CFB ([1]; infusion rate 9 ng/kg/min): 7.6%
Systolic Blood Pressure CFB ([1]; infusion rate 9 ng/kg/min): −10.6 mm Hg
Systolic Blood Pressure Percent CFB ([1]; infusion rate 9 ng/kg/min): −9.4%
Heart Rate CFB ([1]; infusion rate 18 ng/kg/min): 0.8 bpm
Heart Rate Percent CFB ([1]; infusion rate 18 ng/kg/min): 2.5%
Cardiac Index CFB ([1]; infusion rate 18 ng/kg/min): 0.4 L/min/m^2
Cardiac Index Percent CFB ([1]; infusion rate 18 ng/kg/min): 14.5%
Cardiac Output CFB ([1]; infusion rate 18 ng/kg/min): 0.8 L/min
Cardiac Output Percent CFB ([1]; infusion rate 18 ng/kg/min): 15.5%
Diastolic Blood Pressure CFB ([1]; infusion rate 18 ng/kg/min): −7.6 mm Hg
Diastolic Blood Pressure Percent CFB ([1]; infusion rate 18 ng/kg/min): −11.4%
Stroke Volume CFB ([1]; infusion rate 18 ng/kg/min): 9.3 mL
Stroke Volume Percent CFB ([1]; infusion rate 18 ng/kg/min): 12.9%
Systolic Blood Pressure CFB ([1]; infusion rate 18 ng/kg/min): −8.8 mm Hg
Systolic Blood Pressure Percent CFB ([1]; infusion rate 18 ng/kg/min): −8.7%
Heart Rate CFB ([1]; infusion rate 36 ng/kg/min): 3.6 bpm
Heart Rate Percent CFB ([1]; infusion rate 36 ng/kg/min): 6.3%
Cardiac Index CFB ([1]; infusion rate 36 ng/kg/min): 0.3 L/min/m^2
Cardiac Index Percent CFB ([1]; infusion rate 36 ng/kg/min): 12.4%
Cardiac Output CFB ([1]; infusion rate 36 ng/kg/min): 0.7 L/min
Cardiac Output Percent CFB ([1]; infusion rate 36 ng/kg/min): 12.4%
Diastolic Blood Pressure CFB ([1]; infusion rate 36 ng/kg/min): −12.5 mm Hg
Diastolic Blood Pressure Percent CFB ([1]; infusion rate 36 ng/kg/min): −18.5%
Stroke Volume CFB ([1]; infusion rate 36 ng/kg/min): 4.2 mL
Stroke Volume Percent CFB ([1]; infusion rate 36 ng/kg/min): 6.0%
Systolic Blood Pressure CFB ([1]; infusion rate 36 ng/kg/min): −16.4 mm Hg
Systolic Blood Pressure Percent CFB ([1]; infusion rate 36 ng/kg/min): −14.9%
Heart Rate CFB ([1]; infusion rate 45 ng/kg/min): 3.8 bpm
Heart Rate Percent CFB ([1]; infusion rate 45 ng/kg/min): 7.5%
Cardiac Index CFB ([1]; infusion rate 45 ng/kg/min): 0.3 L/min/m^2
Cardiac Index Percent CFB ([1]; infusion rate 45 ng/kg/min): 12.6%
Cardiac Output CFB ([1]; infusion rate 45 ng/kg/min): 0.7 L/min
Cardiac Output Percent CFB ([1]; infusion rate 45 ng/kg/min): 13.3%
Diastolic Blood Pressure CFB ([1]; infusion rate 45 ng/kg/min): −12.6 mm Hg
Diastolic Blood Pressure Percent CFB ([1]; infusion rate 45 ng/kg/min): −19.0%
Stroke Volume CFB ([1]; infusion rate 45 ng/kg/min): 3.3 mL
Stroke Volume Percent CFB ([1]; infusion rate 45 ng/kg/min): 5.4%
Systolic Blood Pressure CFB ([1]; infusion rate 45 ng/kg/min): −12.0 mm Hg
Systolic Blood Pressure Percent CFB ([1]; infusion rate 45 ng/kg/min): −11.7%
Heart Rate CFB ([1]; infusion rate 54 ng/kg/min): 7.0 bpm
Heart Rate Percent CFB ([1]; infusion rate 54 ng/kg/min): 11.5%
Cardiac Index CFB ([1]; infusion rate 54 ng/kg/min): 0.2 L/min/m^2
Cardiac Index Percent CFB ([1]; infusion rate 54 ng/kg/min): 7.5%
Cardiac Output CFB ([1]; infusion rate 54 ng/kg/min): 0.4 L/min
Cardiac Output Percent CFB ([1]; infusion rate 54 ng/kg/min): 11.5%
Diastolic Blood Pressure CFB ([1]; infusion rate 54 ng/kg/min): −14.4 mm Hg
Diastolic Blood Pressure Percent CFB ([1]; infusion rate 54 ng/kg/min): −23.9%
Stroke Volume CFB ([1]; infusion rate 54 ng/kg/min): -2.5 mL
Stroke Volume Percent CFB ([1]; infusion rate 54 ng/kg/min): 0.5%
Systolic Blood Pressure CFB ([1]; infusion rate 54 ng/kg/min): −18.8 mm Hg
Systolic Blood Pressure Percent CFB ([1]; infusion rate 54 ng/kg/min): −21.4%
